Laboratory results taken from patent US8574645B2, “Antimicrobial composition” (DSM IP Assets B.V., priority 2004, dated 2013).
Read-outs that look alike come from different tables or passages of the source. One block for each compound: values may come before it.

Key:
Gram positive bacteria = test: Outgrowth of Gram positive bacteria at the surface of food products; type: cell-based; details: applied at the surface of product, 0.0001 and 1 ppm nisin
Listeria innocua LM35 = test: Antibacterial activity in inoculated cottage cheese, viable cell enumeration; type: cell-based; details: for Log CFU/g of L. innocua: nisin 0.00 ppm, cottage cheese, 4-7° C.
Protocol: This example describes the antibacterial activity of nisin (1.25 and 2.5 ppm) in cottage cheese, in presence of low natamycin concentration. Cottage cheese was prepared as described above. After adding the dressing to the dry curd, the cottage cheese was inoculated with yeasts, fungal cells and cells of Listeria innocua LM35. Following the artificial contamination, the cottage cheese was added with two nisin concentrations 1.25 and 2.5 ppm and/or in combination with natamycin at the concentration 2.5 or 5 ppm. The antibacterial activity of nisin against L. innocua was evaluated after 3 and 6 weeks of incubation at 4° C. through the enumeration of the viable cells in the inoculated samples, in presence or not of preservatives. The number of viable bacterial cells was also determined in a negative sample, non inoculated cottage cheese without preservatives and in a positive control, sample artificially contaminated with bacteria.

[1] = test system: Kluyveromyces marxianus CBS 1557; test: Antifungal activity in inoculated cottage cheese, viable cell enumeration; type: cell-based; details: for Log CFU/g of K. marxianus: nisin 0.00 ppm, cottage cheese, 4-7° C.
Protocol: (§1) This example describes the antifungal activity of low natamycin concentration (2.5 and 5 ppm) in cottage cheese, in presence of nisin. Cottage cheese was prepared as described above. After adding the dressing to the dry curd, the cottage cheese was inoculated with yeasts and fungal cells, Kluyveromyces marxianus CBS 1557 and Penicillium roqueforti CBS 304.97, respectively. Following the artificial contamination, natamycin and/or nisin was added to the cottage cheese at two different concentrations, 2.5 and 5 ppm for natamycin and 1.25 and 2.50 ppm for nisin. The antifungal activity of natamycin against the yeast and the mould cells was evaluated after 3 and 6 weeks of incubation at 4° C. through the enumeration of the viable cells in the inoculated samples, in presence or not of preservatives. The number of viable yeast of fungal cells was also determined in a negative sample, non inoculated cottage cheese without preservatives and in a positive control, sample artificially contaminated with yeast and fungal cells without preservative.

[2] = test system: Penicillium roqueforti CBS 304.97; test: as above; type: cell-based; details: for Log spores/g of P. roqueforti: nisin 0.00 ppm, cottage cheese, 4-7° C.
Protocol: as §1

most food born fungi = details: cited from earlier work
[3] = type: physicochemical
Protocol: Cottage cheese was prepared following the standard procedure for cottage cheese making. The dry curd was obtained by addition of a starter culture to pasteurized skim milk. After acidification till pH 4.4 the curd was pasteurized and rinsed with water. The dry curd was mixed with the dressing at the ratio 66% curd and […]. Before mixing the curd and the dressing, the preservatives Delvocid® and Delvoplus® were added to the dressing. The preservative concentrations in the end products were 2.5 and 5 ppm of natamycin (5 and 10 ppm of Delvocid®) and 1.25 and 2.5 ppm of nisin (50 and 100 ppm of Delvoplus®). The moisture content of cottage cheese (dry curd mixed with the dressing) was 82%.
The procedure described in the International IDF (International Dairy Federation) Standard 140A:1992 for cheese was used to determine the concentration of natamycin in the cottage cheese samples. In total 12 different samples were analysed in triplicate. The remaining percentage of natamycin was calculated using the average of the triplicate. […] After 6 weeks of storage at refrigerated temperature, the average stability of natamycin in cottage cheese was of 92%.

yeast and mould = test: Outgrowth of yeast and mould in or on food products; type: cell-based
[4] = natamycin at 2.5 or 5 ppm in cottage cheese, up to 6 weeks

Compound: nisin
Effectiveness against Gram positive bacteria (Gram positive bacteria): extremely effective | Inhibition of growth of L. innocua (Listeria innocua LM35; nisin 1.25 and 2.5 ppm in cottage cheese, in presence or not of natamycin): inhibited the growth

Stability of dissolved natamycin in water-containing product [3]: stable | Stability of natamycin in cottage cheese [3]: stable | Remaining percentage of natamycin ([3]; 0 h): 100% | Remaining percentage of natamycin, Average ([3]; 0 h): 100% | Remaining percentage of natamycin, Average ([3]; 504 h): 98% | Remaining percentage of natamycin, Average ([3]; 1008 h): 92%
Compound: C[C@@H]1C/C=C/C=C/C=C/C=C/[C@H](O[C@@H]2O[C@H](C)[C@@H](O)[C@H](N)[C@@H]2O)C[C@@H]2O[C@](O)(C[C@@H](O)C[C@H]3O[C@@H]3/C=C/C(=O)O1)C[C@H](O)[C@H]2C(=O)O [natamycin]
Log CFU/g of K. marxianus ([1]; natamycin 2.50 ppm, 0 week): 1.70 Log CFU/g | Log CFU/g of K. marxianus ([1]; natamycin 2.50 ppm, 3 weeks): 1.70 Log CFU/g | Log CFU/g of K. marxianus ([1]; natamycin 2.50 ppm, 6 weeks): <1.00 Log CFU/g | Log CFU/g of K. marxianus ([1]; natamycin 5.00 ppm, 0 week): 1.30 Log CFU/g | Log CFU/g of K. marxianus ([1]; natamycin 5.00 ppm, 3 weeks): <1.00 Log CFU/g | Log CFU/g of K. marxianus ([1]; natamycin 5.00 ppm, 6 weeks): <1.00 Log CFU/g | Prevention of growth of K. marxianus [1, 4]: effective in preventing the growth | Log spores/g of P. roqueforti ([2]; natamycin 2.50 ppm, 0 week): 1.70 Log spores/g | Log spores/g of P. roqueforti ([2]; natamycin 2.50 ppm, 3 weeks): 1.70 Log spores/g | Log spores/g of P. roqueforti ([2]; natamycin 2.50 ppm, 6 weeks): <1.00 Log spores/g | Log spores/g of P. roqueforti ([2]; natamycin 5.00 ppm, 0 week): 1.60 Log spores/g | Log spores/g of P. roqueforti ([2]; natamycin 5.00 ppm, 3 weeks): <1.00 Log spores/g | Log spores/g of P. roqueforti ([2]; natamycin 5.00 ppm, 6 weeks): <1.00 Log spores/g | Prevention of growth of P. roqueforti [2, 4]: effective in preventing the growth | MIC (Minimal Inhibition Concentration) (most food born fungi): less than 10 ppm | Effectiveness against yeast and mould (yeast and mould; applied at the surface of product, 0.01 to 10 ppm natamycin): extremely effective | Effectiveness against yeast and mould (yeast and mould; introduced into foodstuffs at concentrations whereby almost no crystal or solid form is present, ranging from 120 ppm based on water content): extremely effective | Log CFU/g of L. innocua (Listeria innocua LM35; natamycin 2.50 ppm, 0 week): 1.90 Log CFU/g | Log CFU/g of L. innocua (Listeria innocua LM35; natamycin 2.50 ppm, 3 weeks): 2.50 Log CFU/g | Log CFU/g of L. innocua (Listeria innocua LM35; natamycin 2.50 ppm, 6 weeks): 4.50 Log CFU/g | Log CFU/g of L. innocua (Listeria innocua LM35; natamycin 5.00 ppm, 0 week): 1.90 Log CFU/g | Log CFU/g of L. innocua (Listeria innocua LM35; natamycin 5.00 ppm, 3 weeks): 1.90 Log CFU/g | Log CFU/g of L. innocua (Listeria innocua LM35; natamycin 5.00 ppm, 6 weeks): 4.70 Log CFU/g
